{"source": "ChEMBL document CHEMBL2016440", "about": "“Overcoming fluconazole resistance in Candida albicans clinical isolates with tetracyclic indoles” (Bioorg Med Chem Lett, 2012)", "key": {"[1]": {"tested_on": "Candida albicans", "test": "Antifungal activity against fluconazole-resistant Candida albicans isolate 2 assessed as growth inhibition after 48 hrs by alamar blue fluorescence assay in presence of 8 ug/ml fluconazole", "assay_type": "functional, organism-based", "details": "isolate 2, 48 h"}, "[2]": {"tested_on": "Candida albicans", "test": "Antifungal activity against fluconazole-resistant Candida albicans isolate 8 assessed as growth inhibition after 48 hrs by alamar blue fluorescence assay in presence of 8 ug/ml fluconazole", "assay_type": "functional, organism-based", "details": "isolate 8, 48 h"}, "[3]": {"tested_on": "NIH3T3", "test": "Cytotoxicity against mouse 3T3 cells", "assay_type": "cell-based"}, "[4]": {"tested_on": "Candida albicans", "test": "Antifungal activity against Candida albicans assessed as growth inhibition after 48 hrs by alamar blue fluorescence assay", "assay_type": "functional, organism-based"}, "[5]": {"tested_on": "Candida albicans", "test": "Antifungal activity against fluconazole-sensitive Candida albicans SC5314 assessed as growth inhibition at 7.5 ug/ml after 24 hrs by alamar blue fluorescence assay", "assay_type": "functional, organism-based"}, "[6]": {"tested_on": "Candida albicans", "test": "Antifungal activity against fluconazole-sensitive Candida albicans SC5314 assessed as growth inhibition at 7.5 ug/ml after 24 hrs by alamar blue fluorescence assay in presence of fluconazole", "assay_type": "functional", "details": "SC5314, 24 h, read-out: GI"}, "[7]": {"tested_on": "Candida albicans", "test": "Antifungal activity against fluconazole-sensitive Candida albicans SC5314 assessed as growth inhibition at 1 ug/ml after 24 hrs by alamar blue fluorescence assay", "assay_type": "functional, organism-based"}, "[8]": {"tested_on": "NIH3T3", "test": "Cytotoxicity against mouse 3T3 cells at 0.2 to 26 uM", "assay_type": "cell-based", "details": "nih3t3, 26 µM"}, "[9]": {"tested_on": "Candida albicans", "test": "Antifungal activity against fluconazole-sensitive Candida albicans SC5314 assessed as growth inhibition at 8 ug/ml after 24 hrs by alamar blue fluorescence assay", "assay_type": "functional, organism-based"}}, "note": "Calls of active or inactive are those of the source. No cut-off for these calls is given here.", "data": [{"smiles": "O=C(Cn1c2ccccc2c2nc3n(c(=O)c21)CCS3)N1CCCC1", "values": [{"measurement": "IC50", "setting": "[1]", "value": 1.1, "unit": "µM"}, {"measurement": "IC50", "setting": "[2]", "value": 1.9, "unit": "µM"}, {"measurement": "IC50", "setting": "[3]", "value": "> 26", "unit": "µM"}, {"measurement": "IC50", "setting": "[4]", "value": "> 26", "unit": "µM"}, {"measurement": "growth inhibition (GI)", "setting": "[5]", "value": "inactive"}, {"measurement": "inhibition of growth at 7.5 µg/mL", "setting": "[6]", "value": 96, "unit": "%"}]}, {"smiles": "CC1CCN(CCn2c3ccccc3c3nc4n(c(=O)c32)CCS4)CC1", "values": [{"measurement": "IC50", "setting": "[1]", "value": "> 10", "unit": "µM"}, {"measurement": "IC50", "setting": "[2]", "value": "> 26", "unit": "µM"}]}, {"smiles": "O=C(Cn1c2ccccc2c2ccncc21)N1CCCCC1", "values": [{"measurement": "IC50", "setting": "[1]", "value": "> 26", "unit": "µM"}, {"measurement": "IC50", "setting": "[2]", "value": "> 26", "unit": "µM"}]}, {"smiles": "COC(=O)Cn1c2ccc(F)cc2c2nc3n(c(=O)c21)CCS3", "values": [{"measurement": "IC50", "setting": "[1]", "value": 3.5, "unit": "µM"}, {"measurement": "IC50", "setting": "[2]", "value": 6, "unit": "µM"}]}, {"smiles": "COc1ccc2c(c1)c1nc3n(c(=O)c1n2CC(=O)N1CCC(C)CC1)CCS3", "values": [{"measurement": "IC50", "setting": "[1]", "value": "> 26", "unit": "µM"}, {"measurement": "IC50", "setting": "[2]", "value": "> 26", "unit": "µM"}]}, {"smiles": "C[C@@H]1[C@H](O)[C@@H](C)/C=C/C=C/C=C/C=C/C=C/C=C/C=C/[C@H](O[C@@H]2O[C@H](C)[C@@H](O)[C@H](N)[C@@H]2O)C[C@@H]2O[C@](O)(C[C@@H](O)C[C@@H](O)[C@H](O)CC[C@@H](O)C[C@@H](O)CC(=O)O[C@H]1C)C[C@H](O)[C@H]2C(=O)O", "values": [{"measurement": "growth inhibition (GI)", "setting": "[7]", "value": "Active"}]}, {"smiles": "CC1CCN(C(=O)Cn2c3ccccc3c3nc4n(c(=O)c32)CCS4)CC1", "values": [{"measurement": "IC50", "setting": "[1]", "value": 3.2, "unit": "µM"}, {"measurement": "IC50", "setting": "[2]", "value": 5.5, "unit": "µM"}, {"measurement": "IC50", "setting": "[3]", "value": "> 26", "unit": "µM"}, {"measurement": "Activity", "setting": "[8]", "value": "Non-toxic"}]}, {"smiles": "O=C(Cn1c2ccccc2c2nc3n(c(=O)c21)CCS3)N1CCC(F)(F)C1", "values": [{"measurement": "IC50", "setting": "[1]", "value": 5.9, "unit": "µM"}, {"measurement": "IC50", "setting": "[2]", "value": 10.2, "unit": "µM"}]}, {"smiles": "O=C(Cn1c2ccccc2c2nc3n(c(=O)c21)CCS3)N1CCC(F)(F)CC1", "values": [{"measurement": "IC50", "setting": "[1]", "value": "> 10", "unit": "µM"}, {"measurement": "IC50", "setting": "[2]", "value": "> 26", "unit": "µM"}]}, {"smiles": "CC1CCN(C(=O)Cn2c3ccc(F)cc3c3nc4n(c(=O)c32)CCCS4)CC1", "values": [{"measurement": "IC50", "setting": "[1]", "value": 2.7, "unit": "µM"}, {"measurement": "IC50", "setting": "[2]", "value": 11.7, "unit": "µM"}]}, {"smiles": "O=C(Cn1c2ccc(F)cc2c2nc3n(c(=O)c21)CCS3)N1CCCCCC1", "values": [{"measurement": "IC50", "setting": "[1]", "value": 2.2, "unit": "µM"}, {"measurement": "IC50", "setting": "[2]", "value": "> 26", "unit": "µM"}]}, {"smiles": "O=C(Cn1c2ccccc2c2nc3n(c(=O)c21)CCS3)N1CCOCC1", "values": [{"measurement": "IC50", "setting": "[1]", "value": 4.3, "unit": "µM"}, {"measurement": "IC50", "setting": "[2]", "value": 6.6, "unit": "µM"}]}, {"smiles": "Oc1c2nc3ccc(F)cc3c-2nc2n1CCS2", "values": [{"measurement": "IC50", "setting": "[1]", "value": 3.8, "unit": "µM"}, {"measurement": "IC50", "setting": "[2]", "value": 7.1, "unit": "µM"}]}, {"smiles": "O=C(Cn1c2ccc(F)cc2c2nc3n(c(=O)c21)CCS3)N1CCC(F)(F)C1", "values": [{"measurement": "IC50", "setting": "[1]", "value": 1.1, "unit": "µM"}, {"measurement": "IC50", "setting": "[2]", "value": 1.1, "unit": "µM"}]}, {"smiles": "O=C(Cn1c2ccc(F)cc2c2nc3n(c(=O)c21)CCS3)N1CC=CC1", "values": [{"measurement": "IC50", "setting": "[1]", "value": 0.5, "unit": "µM"}, {"measurement": "IC50", "setting": "[2]", "value": "> 26", "unit": "µM"}]}, {"smiles": "O=C(Cn1c2ccc(F)cc2c2nc3n(c(=O)c21)CCS3)N1CCCC1", "values": [{"measurement": "IC50", "setting": "[1]", "value": 0.6, "unit": "µM"}, {"measurement": "IC50", "setting": "[2]", "value": 18.9, "unit": "µM"}]}, {"smiles": "Oc1c2nc3ccccc3c-2nc2n1CCS2", "values": [{"measurement": "IC50", "setting": "[1]", "value": "> 10", "unit": "µM"}, {"measurement": "IC50", "setting": "[2]", "value": 15.7, "unit": "µM"}]}, {"smiles": "COC(=O)Cn1c2ccccc2c2nc3n(c(=O)c21)CCS3", "values": [{"measurement": "IC50", "setting": "[1]", "value": 7.9, "unit": "µM"}, {"measurement": "IC50", "setting": "[2]", "value": 13.3, "unit": "µM"}]}, {"smiles": "O=C(Cn1c2ccc(F)cc2c2nc3n(c(=O)c21)CCS3)N1CCC(F)(F)CC1", "values": [{"measurement": "IC50", "setting": "[1]", "value": 0.7, "unit": "µM"}, {"measurement": "IC50", "setting": "[2]", "value": "> 26", "unit": "µM"}]}, {"smiles": "O=C(O)Cn1c2ccc(F)cc2c2nc3n(c(=O)c21)CCS3", "values": [{"measurement": "IC50", "setting": "[1]", "value": "> 26", "unit": "µM"}, {"measurement": "IC50", "setting": "[2]", "value": "> 26", "unit": "µM"}]}, {"smiles": "O=C(Cn1c2ccccc2c2nc3n(c(=O)c21)CCS3)N1CCCCC1", "values": [{"measurement": "IC50", "setting": "[1]", "value": 1.9, "unit": "µM"}, {"measurement": "IC50", "setting": "[2]", "value": 2.9, "unit": "µM"}]}, {"smiles": "OC(Cn1cncn1)(Cn1cncn1)c1ccc(F)cc1F", "values": [{"measurement": "growth inhibition (GI)", "setting": "[9]", "value": "inactive"}]}, {"smiles": "O=C(Cn1c2ccc(F)cc2c2nc3n(c(=O)c21)CCS3)N1CCCCC1", "values": [{"measurement": "IC50", "setting": "[1]", "value": 0.5, "unit": "µM"}, {"measurement": "IC50", "setting": "[2]", "value": "> 26", "unit": "µM"}]}, {"smiles": "O=C(Cn1c2ccccc2c2nc3n(c(=O)c21)CCS3)NCCc1ccc(Cl)cc1", "values": [{"measurement": "IC50", "setting": "[1]", "value": "> 10", "unit": "µM"}, {"measurement": "IC50", "setting": "[2]", "value": 23.4, "unit": "µM"}]}, {"smiles": "CN1CCN(C(=O)Cn2c3ccccc3c3nc4n(c(=O)c32)CCS4)CC1", "values": [{"measurement": "IC50", "setting": "[1]", "value": 7.1, "unit": "µM"}, {"measurement": "IC50", "setting": "[2]", "value": 22.5, "unit": "µM"}]}, {"smiles": "COc1ccc(NC(=O)Cn2c3ccccc3c3nc4n(c(=O)c32)CCS4)cc1", "values": [{"measurement": "IC50", "setting": "[1]", "value": "> 10", "unit": "µM"}, {"measurement": "IC50", "setting": "[2]", "value": "> 26", "unit": "µM"}]}, {"smiles": "O=C(Cn1c2ccccc2c2nc3n(c(=O)c21)CCS3)N1CC=CC1", "values": [{"measurement": "IC50", "setting": "[1]", "value": 1.8, "unit": "µM"}, {"measurement": "IC50", "setting": "[2]", "value": 3.1, "unit": "µM"}]}, {"smiles": "CCN(CC)C(=O)Cn1c2ccc(F)cc2c2nc3n(c(=O)c21)CCS3", "values": [{"measurement": "IC50", "setting": "[1]", "value": 0.5, "unit": "µM"}, {"measurement": "IC50", "setting": "[2]", "value": "> 26", "unit": "µM"}]}, {"smiles": "CC1(O)CN(C(=O)Cn2c3ccccc3c3nc4n(c(=O)c32)CCS4)C1", "values": [{"measurement": "IC50", "setting": "[1]", "value": "> 10", "unit": "µM"}, {"measurement": "IC50", "setting": "[2]", "value": "> 26", "unit": "µM"}]}, {"smiles": "CC1CCN(C(=O)Cn2c3ccccc3c3nc4n(c(=O)c32)CCCS4)CC1", "values": [{"measurement": "IC50", "setting": "[1]", "value": 12.1, "unit": "µM"}, {"measurement": "IC50", "setting": "[2]", "value": 21.3, "unit": "µM"}]}, {"smiles": "CCN(CC)C(=O)Cn1c2ccccc2c2nc3n(c(=O)c21)CCS3", "values": [{"measurement": "IC50", "setting": "[1]", "value": 2.3, "unit": "µM"}, {"measurement": "IC50", "setting": "[2]", "value": "> 26", "unit": "µM"}]}, {"smiles": "COc1ccc2c(c1)c1nc3n(c(=O)c1n2CC(=O)N1CCC(Cc2ccccc2)CC1)CCS3", "values": [{"measurement": "IC50", "setting": "[1]", "value": "> 26", "unit": "µM"}, {"measurement": "IC50", "setting": "[2]", "value": "> 26", "unit": "µM"}]}, {"smiles": "O=C(O)Cn1c2ccccc2c2nc3n(c(=O)c21)CCS3", "values": [{"measurement": "IC50", "setting": "[1]", "value": "> 10", "unit": "µM"}, {"measurement": "IC50", "setting": "[2]", "value": "> 26", "unit": "µM"}]}]}
